# Tests used:
# [1] = tested on: U87 glioblastoma cells; test: MTT cell viability assay, U87 glioblastoma cells, TMZ with or without plasma discharge tube electro-magnetic field; type: cell-based, human; details: for inhibition of the growth of U87 cells: then 180 μM TMZ
# Method: (§1) In one experiment conducted using the test system 10 in FIGS. 1A-1B, human glioblastoma cancer cell lines U87 and A172 as well as […] E6/E7 were provided from the ATCC (City of Manassas, VA), and were grown in Dulbecco's Modified Eagle Medium (Gibco) supplemented with 10% fetal bovine serum (Atlanta Biologicals) and 1% penicillin-streptomycin solution (Invitrogen) under standard cell culture conditions (humidified atmosphere with 5% CO2 at 37° C.). After one passage, 10,000 cells in 100 μL medium were seeded into 96-well plates such as the plate 134 in FIG. 1A. The cells were cultured for 24 hours before the experiment was performed to ensure proper cell attachment and stability.
# (§2) Cell viability was analyzed by using an MTT assay available from Sigma-Aldrich, which is a colorimetric assay for analyzing the cell metabolic activity. The MTT protocol is based on NAD(P)H-dependent cellular oxidoreductases, which reduces the water-soluble MTT ((3-(4,5-dimethylthiazol-2-yl)-2,5-diphenyltetrazolium bromide) to an insoluble formazan product. Cells with active metabolism can transform MTT into formazan; however, dead cells cannot transform MTT into formazan and will not show detectable signal. The measured absorbance at OD 590 nm is proportional to the number of viable cells.
# (§3) Following treatment with an electro-magnetic field generated from the example plasma tube, the cells were cultured for 72 hours. A total of 100 μL MTT solution (7 mg Thiazolyl Blue Tetrazolium Blue in 10 ml DMEM) was added to each well. Cells were cultured for an additional 3 hours at 37° C., and then the MTT solution was aspirated and a 100 μL solvent was added to dissolve the formazan crystals. The result was recorded with a Synergy H1 Hybrid Multi-Mode Microplate Reader at 570 nm. For each condition (treatment time, voltage, drug concentration), the experiments were performed in triplicates and were repeated independently 3 times.
# In this example, four different experimental cell groups were used. The first experimental group was the control group. For each well of the plates for the control group, the cell culture media was removed before the treatment applied to the other experimental groups. After the treatment was applied to the other experimental groups, 100 μL, fresh cell culture media for each well was added to the cells of the control group.
# The second experimental group is the tube-only group. For the tube-only group, the cell culture media was removed before the treatment as well. After that, the cells were treated by placing the plate 134 on the side of the discharge tube 100 in FIG. 1A, with a distance of 1 and 5 mm between the plate 134 and the tube 100. The cells in the plate were exposed to the electro-magnetic field for 1, 4 and 7 minutes. 100 μL fresh cell culture media for each well was added to the cells after the treatment.
# The third experiment group is the drug-only group. For the drug-only group, the cell culture media was removed before the treatment via electro-magnetic field applied to the other experimental groups. After the treatment of the other groups, 100 μL fresh cell culture media with 180, 250, 320 μM of TMZ for each well was added to the cells.
# The last experimental group is a combination group. For the combination group, the cell culture media was removed before the treatment as well. Then, the cells were treated by placing the plate 134 on the side of the discharge tube 100 at a distance of 1 and 5 mm. The electro-magnetic field was applied for 1, 4 and 7 minutes. Following the treatment, 100 μL, fresh cell culture media with 180, 250, and 320 μM of TMZ for each well was added to the cells.
# [2] = tested on: A172 glioblastoma cells; test: MTT cell viability assay, A172 glioblastoma cells, TMZ with or without plasma discharge tube electro-magnetic field; type: cell-based, human
# Method: as §1, §2, §3
# In this example, four different experimental cell groups were used. The first experimental group was the control group. […]
# [3] = tested on: hTERT/E6/E7 cells; test: MTT cell viability assay, non-cancerous hTERT/E6/E7 cells, TMZ with or without plasma discharge tube electro-magnetic field; type: cell-based; details: after a single 7-minute treatment with discharge tube, E6/E7 non-tumor cell line
# Method: as §1
# as §2, with “cells. […]” for “cells.”
compound,measurement,setting,value
"Cn1nnc2c(C(N)=O)ncn2c1=O [TMZ, Temozolomide]",inhibition of the growth of U87 cells (killing effect),"[1]; 1, 4 or 7 minute electro-magnetic field exposure at 1 mm, then 320 μM TMZ",~80%
same,inhibition of the growth of U87 cells,[1]; 1 minute electro-magnetic field exposure,24%
same,inhibition of the growth of U87 cells,[1]; 4 minute electro-magnetic field exposure,38%
same,inhibition of the growth of U87 cells,[1]; 7 minute electro-magnetic field exposure,72%
same,increase in U87 cell death compared with non-cancerous cells,[1]; 7 minutes electro-magnetic field exposure prior to TMZ treatment (FIG. 7),43%
same,inhibition at 180 µM,"[1]; Homo sapiens, U-87 MG, 72 h, 180 μM TMZ only, no electro-magnetic field, 72 h, read-out: growth inhibition / cell death of U87 cells",21%
same,higher cell death in U87 cells compared to E6/E7 cells,[1]; TMZ-only treatment (FIG. 7),12%
same,increase of anti-cancer efficacy of TMZ (factor),"[1]; after a single 7-minute treatment with discharge tube, U87",> 2
same,killing effect on U87 cells,[1]; electro-magnetic field exposure at 5 mm (so in the source); FIG. 4E) plus TMZ,60%
same,reduction of cell viability of A172 cells,"[2]; 7 minutes electro-magnetic field exposure at 1 mm, then 250 μM TMZ",76%
same,inhibition at 250 µM,"[2]; Homo sapiens, A 172, 250 μM TMZ, read-out: cell growth inhibition of A172 cells",23%
same,increase of anti-cancer efficacy of TMZ (factor),"[2]; after a single 7-minute treatment with discharge tube, A172",> 2
same,increase of anti-cancer efficacy of TMZ,[3],no significant effect

# Source: US12458809B2, “Method and system of using plasma discharge tube for sensitization of cancer cells” (The George Washington University, priority 2019, dated 2025)
